The assay addresses Envelope glycoprotein gp160 (Human immunodeficiency virus 1, UniProt Q6QLK5). Description: cell-free HIV fusion peptide-binding blockers – biochemical, uHTS, fluorescence dequenching, […] (AID 1986).

We go through 1 compound from ChEMBL document CHEMBL1201862, “PubChem BioAssay data set” (2004).

Calls of active or inactive are those of the source. Rule as the data show it: actives have a measured IC50 and inactives only a lower limit.

Chain of Envelope glycoprotein gp160 (Q6QLK5 whole entry, the tested form may be a part): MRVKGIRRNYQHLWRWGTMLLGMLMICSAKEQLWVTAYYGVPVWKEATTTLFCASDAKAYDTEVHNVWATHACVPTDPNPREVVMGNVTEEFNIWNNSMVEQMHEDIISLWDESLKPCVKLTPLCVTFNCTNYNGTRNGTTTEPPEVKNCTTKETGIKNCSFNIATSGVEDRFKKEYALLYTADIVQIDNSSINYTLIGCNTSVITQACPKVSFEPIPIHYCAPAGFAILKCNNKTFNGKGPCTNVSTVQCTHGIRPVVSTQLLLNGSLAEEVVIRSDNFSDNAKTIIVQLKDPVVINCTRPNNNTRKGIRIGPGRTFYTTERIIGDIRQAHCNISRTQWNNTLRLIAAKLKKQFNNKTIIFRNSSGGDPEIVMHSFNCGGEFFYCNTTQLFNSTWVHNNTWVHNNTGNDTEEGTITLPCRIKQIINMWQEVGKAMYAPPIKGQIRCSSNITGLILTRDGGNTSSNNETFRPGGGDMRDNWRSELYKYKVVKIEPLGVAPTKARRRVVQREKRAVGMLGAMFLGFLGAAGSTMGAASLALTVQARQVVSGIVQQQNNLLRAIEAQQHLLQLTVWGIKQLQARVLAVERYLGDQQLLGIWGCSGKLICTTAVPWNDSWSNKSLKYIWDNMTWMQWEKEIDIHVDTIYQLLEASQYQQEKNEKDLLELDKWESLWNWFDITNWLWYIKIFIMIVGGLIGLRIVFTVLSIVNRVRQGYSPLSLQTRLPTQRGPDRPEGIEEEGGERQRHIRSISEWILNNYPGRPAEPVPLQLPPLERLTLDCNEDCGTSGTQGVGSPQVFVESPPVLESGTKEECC

In general, IC50 refers to the concentration needed to halve the response being measured. As for `O=C(Nc1ccc(C(=O)O)cc1)/C(=C\C=C\c1ccccc1)NC(=O)c1cccc(Br)c1`, the IC50 is 22.6 µM (active).
